Tested on: hepatocytes
Test: Seq-Well scRNA-Seq of hepatocytes after APAP overdose (signature scores, DEG vs untreated)
Format: in vivo, mouse

CC(=O)Nc1ccc(O)cc1 [APAP, acetaminophen]
Ubb A48logFC (A48 vs UT): −0.2644
0610005C13Rik avg_logFC (A96 vs untreated (UT)): 0.2979
0610005C13Rik pct.1 (A96 vs untreated (UT)): 0.816
0610007P14Rik avg_logFC (A96 vs untreated (UT)): 0.2519
0610007P14Rik pct.1 (A96 vs untreated (UT)): 0.512
8430408G22Rik avg_logFC (A96 vs untreated (UT)): 0.2527
8430408G22Rik pct.1 (A96 vs untreated (UT)): 0.559
Abca6 avg_logFC (A96 vs untreated (UT)): 0.2823
Abca6 pct.1 (A96 vs untreated (UT)): 0.686
Abcb4 avg_logFC (A96 vs untreated (UT)): 0.4758
Abcb4 pct.1 (A96 vs untreated (UT)): 0.878
Abcc3 pct.1 (A96 vs untreated (UT)): 0.733
Acad11 avg_logFC (A96 vs untreated (UT)): 0.2578
Acad11 pct.1 (A96 vs untreated (UT)): 0.711
Acadl avg_logFC (A96 vs untreated (UT)): 0.2937
Acadl pct.1 (A96 vs untreated (UT)): 0.8
Acat1 avg_logFC (A96 vs untreated (UT)): 0.3485
Acat1 pct.1 (A96 vs untreated (UT)): 0.917
Acbd5 avg_logFC (A96 vs untreated (UT)): 0.4341
Acbd5 pct.1 (A96 vs untreated (UT)): 0.87
Acot1 avg_logFC (A96 vs untreated (UT)): 0.298
Acot1 pct.1 (A96 vs untreated (UT)): 0.459
Acot4 avg_logFC (A96 vs untreated (UT)): 0.268
Acot4 pct.1 (A96 vs untreated (UT)): 0.328
Acot12 avg_logFC (A96 vs untreated (UT)): 0.2957
Acot12 pct.1 (A96 vs untreated (UT)): 0.65
Acsl1 avg_logFC (A96 vs untreated (UT)): 0.2915
Acsl1 pct.1 (A96 vs untreated (UT)): 0.977
Actn4 avg_logFC (A96 vs untreated (UT)): 0.2609
Actn4 pct.1 (A96 vs untreated (UT)): 0.6
Agpat6 avg_logFC (A96 vs untreated (UT)): 0.4098
Agpat6 pct.1 (A96 vs untreated (UT)): 0.743
Agt avg_logFC (A96 vs untreated (UT)): 0.3765
Agt pct.1 (A96 vs untreated (UT)): 0.912
Akr1c6 avg_logFC (A96 vs untreated (UT)): −0.359
Akr1c6 pct.1 (A96 vs untreated (UT)): 0.967
Akr1d1 avg_logFC (A96 vs untreated (UT)): 0.3787
Akr1d1 pct.1 (A96 vs untreated (UT)): 0.721
Aldh2 avg_logFC (A96 vs untreated (UT)): 0.304
Aldh2 pct.1 (A96 vs untreated (UT)): 0.995
Aldh3a2 avg_logFC (A96 vs untreated (UT)): 0.4933
Aldh3a2 pct.1 (A96 vs untreated (UT)): 0.687
Aldh6a1 avg_logFC (A96 vs untreated (UT)): 0.2669
Aldh6a1 pct.1 (A96 vs untreated (UT)): 0.829
Aldh9a1 avg_logFC (A96 vs untreated (UT)): 0.3633
Aldh9a1 pct.1 (A96 vs untreated (UT)): 0.884
Amy1 avg_logFC (A96 vs untreated (UT)): 0.4212
Amy1 pct.1 (A96 vs untreated (UT)): 0.831
Angptl3 avg_logFC (A96 vs untreated (UT)): 0.6936
Angptl3 pct.1 (A96 vs untreated (UT)): 0.998
Apoc1 avg_logFC (A96 vs untreated (UT)): 0.5008
Apoc1 pct.1 (A96 vs untreated (UT)): 1
Apoc2 avg_logFC (A96 vs untreated (UT)): 0.5187
Apoc2 pct.1 (A96 vs untreated (UT)): 0.901
Apoc3 avg_logFC (A96 vs untreated (UT)): 0.3002
Apoe avg_logFC (A96 vs untreated (UT)): 0.327
Apoe pct.1 (A96 vs untreated (UT)): 1
Apoh avg_logFC (A96 vs untreated (UT)): 0.3467
Apoh pct.1 (A96 vs untreated (UT)): 0.998
Apol7a avg_logFC (A96 vs untreated (UT)): 0.2716
Apol7a pct.1 (A96 vs untreated (UT)): 0.559
Aqp9 avg_logFC (A96 vs untreated (UT)): 0.3346
Aqp9 pct.1 (A96 vs untreated (UT)): 0.801
Arl4a avg_logFC (A96 vs untreated (UT)): 0.2911
Arl4a pct.1 (A96 vs untreated (UT)): 0.517
Asl avg_logFC (A96 vs untreated (UT)): 0.4141
Asl pct.1 (A96 vs untreated (UT)): 0.896
Atf5 avg_logFC (A96 vs untreated (UT)): 0.2708
Atf5 pct.1 (A96 vs untreated (UT)): 0.745
Atp5k avg_logFC (A96 vs untreated (UT)): 0.4068
Atp5k pct.1 (A96 vs untreated (UT)): 0.837
Atp5h avg_logFC (A96 vs untreated (UT)): 0.3114
Atp5h pct.1 (A96 vs untreated (UT)): 0.848
Atxn7l3b avg_logFC (A96 vs untreated (UT)): 0.2828
Atxn7l3b pct.1 (A96 vs untreated (UT)): 0.654
BC005537 avg_logFC (A96 vs untreated (UT)): 0.2869
BC005537 pct.1 (A96 vs untreated (UT)): 0.611
Baat avg_logFC (A96 vs untreated (UT)): 0.2625
Baat pct.1 (A96 vs untreated (UT)): 0.862
Bche avg_logFC (A96 vs untreated (UT)): 0.3287
Bche pct.1 (A96 vs untreated (UT)): 0.588
Bnip3 avg_logFC (A96 vs untreated (UT)): 0.3443
Bnip3 pct.1 (A96 vs untreated (UT)): 0.716
Brap avg_logFC (A96 vs untreated (UT)): 0.3113
Brap pct.1 (A96 vs untreated (UT)): 0.642
Brd2 avg_logFC (A96 vs untreated (UT)): 0.3104
Brd2 pct.1 (A96 vs untreated (UT)): 0.601
Cbr1 avg_logFC (A96 vs untreated (UT)): 0.2829
Cbr1 pct.1 (A96 vs untreated (UT)): 0.591
Cd36 avg_logFC (A96 vs untreated (UT)): 0.3312
Cd36 pct.1 (A96 vs untreated (UT)): 0.299
Cdo1 avg_logFC (A96 vs untreated (UT)): 0.5679
Cdo1 pct.1 (A96 vs untreated (UT)): 0.998
Ces1c avg_logFC (A96 vs untreated (UT)): 0.3583
Ces1c pct.1 (A96 vs untreated (UT)): 1
Ces1e avg_logFC (A96 vs untreated (UT)): 0.2944
Ces1e pct.1 (A96 vs untreated (UT)): 0.71
Ces3a avg_logFC (A96 vs untreated (UT)): −0.2844
Ces3a pct.1 (A96 vs untreated (UT)): 0.97
Ces3b avg_logFC (A96 vs untreated (UT)): −0.3398
Ces3b pct.1 (A96 vs untreated (UT)): 0.685
Ces1d avg_logFC (A96 vs untreated (UT)): 0.4277
Ces1d pct.1 (A96 vs untreated (UT)): 0.977
Chchd10 avg_logFC (A96 vs untreated (UT)): 0.608
Chchd10 pct.1 (A96 vs untreated (UT)): 0.994
Chp1 avg_logFC (A96 vs untreated (UT)): 0.2687
Chp1 pct.1 (A96 vs untreated (UT)): 0.687
Cox5a avg_logFC (A96 vs untreated (UT)): 0.3398
Cox5a pct.1 (A96 vs untreated (UT)): 0.813
Cox6a1 avg_logFC (A96 vs untreated (UT)): 0.2517
Cox6a1 pct.1 (A96 vs untreated (UT)): 0.943
Cox8a avg_logFC (A96 vs untreated (UT)): 0.3089
Cox8a pct.1 (A96 vs untreated (UT)): 0.737
Cp avg_logFC (A96 vs untreated (UT)): 0.2826
Cp pct.1 (A96 vs untreated (UT)): 0.993
Cpeb4 avg_logFC (A96 vs untreated (UT)): 0.3418
Cpeb4 pct.1 (A96 vs untreated (UT)): 0.527
Cpox avg_logFC (A96 vs untreated (UT)): 0.3326
Cpox pct.1 (A96 vs untreated (UT)): 0.634
Cpt1a avg_logFC (A96 vs untreated (UT)): 0.3742
Cpt1a pct.1 (A96 vs untreated (UT)): 0.837
Crat avg_logFC (A96 vs untreated (UT)): 0.2624
Crat pct.1 (A96 vs untreated (UT)): 0.389
Creg1 avg_logFC (A96 vs untreated (UT)): 0.2586
Creg1 pct.1 (A96 vs untreated (UT)): 0.985
Crot avg_logFC (A96 vs untreated (UT)): 0.3326
Crot pct.1 (A96 vs untreated (UT)): 0.989
Csde1 avg_logFC (A96 vs untreated (UT)): 0.2567
Csde1 pct.1 (A96 vs untreated (UT)): 0.742
Ctage5 avg_logFC (A96 vs untreated (UT)): 0.3217
Ctage5 pct.1 (A96 vs untreated (UT)): 0.837
Cxcl12 avg_logFC (A96 vs untreated (UT)): 0.3372
Cxcl12 pct.1 (A96 vs untreated (UT)): 0.635
Cyp4a10 avg_logFC (A96 vs untreated (UT)): 1.12
Cyp4a10 pct.1 (A96 vs untreated (UT)): 0.974
Cyp4a14 avg_logFC (A96 vs untreated (UT)): 1.601
Cyp4a14 pct.1 (A96 vs untreated (UT)): 0.975
D4Wsu53e avg_logFC (A96 vs untreated (UT)): 0.3032
D4Wsu53e pct.1 (A96 vs untreated (UT)): 0.597
D17Wsu92e avg_logFC (A96 vs untreated (UT)): 0.3581
D17Wsu92e pct.1 (A96 vs untreated (UT)): 0.771
Ddx3x avg_logFC (A96 vs untreated (UT)): 0.2899
Ddx3x pct.1 (A96 vs untreated (UT)): 0.701
Decr1 avg_logFC (A96 vs untreated (UT)): 0.3241
Decr1 pct.1 (A96 vs untreated (UT)): 0.808
Decr2 avg_logFC (A96 vs untreated (UT)): 0.3728
Decr2 pct.1 (A96 vs untreated (UT)): 0.813
Dennd5b avg_logFC (A96 vs untreated (UT)): 0.2871
Dennd5b pct.1 (A96 vs untreated (UT)): 0.548
Dhcr24 avg_logFC (A96 vs untreated (UT)): 0.3842
Dhcr24 pct.1 (A96 vs untreated (UT)): 0.933
Dhdh avg_logFC (A96 vs untreated (UT)): 0.2837
Dhdh pct.1 (A96 vs untreated (UT)): 0.734
Dpys avg_logFC (A96 vs untreated (UT)): 0.2626
Dpys pct.1 (A96 vs untreated (UT)): 0.824
Dusp6 avg_logFC (A96 vs untreated (UT)): 0.3249
Dusp6 pct.1 (A96 vs untreated (UT)): 0.476
Ei24 avg_logFC (A96 vs untreated (UT)): 0.2718
Ei24 pct.1 (A96 vs untreated (UT)): 0.667
Eif4g2 avg_logFC (A96 vs untreated (UT)): 0.2838
Eif4g2 pct.1 (A96 vs untreated (UT)): 0.812
Elovl5 avg_logFC (A96 vs untreated (UT)): 0.3232
Elovl5 pct.1 (A96 vs untreated (UT)): 0.765
Erbb2ip avg_logFC (A96 vs untreated (UT)): 0.2553
Erbb2ip pct.1 (A96 vs untreated (UT)): 0.561
Etfdh avg_logFC (A96 vs untreated (UT)): 0.2802
Etfdh pct.1 (A96 vs untreated (UT)): 0.811
F5 avg_logFC (A96 vs untreated (UT)): 0.3557
Fmo1 avg_logFC (A96 vs untreated (UT)): 0.264
Fmo1 pct.1 (A96 vs untreated (UT)): 0.606
Fth1 avg_logFC (A96 vs untreated (UT)): 0.3226
Fth1 pct.1 (A96 vs untreated (UT)): 0.993
G0s2 avg_logFC (A96 vs untreated (UT)): 0.2947
G0s2 pct.1 (A96 vs untreated (UT)): 0.525
Gabarapl1 avg_logFC (A96 vs untreated (UT)): 0.2984
Gabarapl1 pct.1 (A96 vs untreated (UT)): 0.881
Gclc avg_logFC (A96 vs untreated (UT)): 0.2707
Gclc pct.1 (A96 vs untreated (UT)): 0.839
Gclm avg_logFC (A96 vs untreated (UT)): 0.3282
Gclm pct.1 (A96 vs untreated (UT)): 0.865
Gfra1 avg_logFC (A96 vs untreated (UT)): 0.2571
Gfra1 pct.1 (A96 vs untreated (UT)): 0.687
Gm2a avg_logFC (A96 vs untreated (UT)): 0.3164
Gm2a pct.1 (A96 vs untreated (UT)): 0.587
Gm13775 avg_logFC (A96 vs untreated (UT)): −1.05
Gm13775 pct.1 (A96 vs untreated (UT)): 0.3
Gpld1 avg_logFC (A96 vs untreated (UT)): 0.3039
Gpld1 pct.1 (A96 vs untreated (UT)): 0.748
Grn avg_logFC (A96 vs untreated (UT)): 0.3731
Grn pct.1 (A96 vs untreated (UT)): 0.629
Gsta2 avg_logFC (A96 vs untreated (UT)): 0.3111
Gsta2 pct.1 (A96 vs untreated (UT)): 0.522
Gstm3 avg_logFC (A96 vs untreated (UT)): −0.5668
Gstm3 pct.1 (A96 vs untreated (UT)): 0.23
Gstt3 avg_logFC (A96 vs untreated (UT)): 0.3379
Gstt3 pct.1 (A96 vs untreated (UT)): 0.541
Gyk avg_logFC (A96 vs untreated (UT)): 0.4334
Gyk pct.1 (A96 vs untreated (UT)): 0.616
Hadh avg_logFC (A96 vs untreated (UT)): 0.2626
Hadh pct.1 (A96 vs untreated (UT)): 0.774
Hamp2 avg_logFC (A96 vs untreated (UT)): 0.3052
Hamp2 pct.1 (A96 vs untreated (UT)): 0.203

— patent US20230053540A1, “TREATMENT OF LIVER INJURY” (Massachusetts Institute of Technology, priority 2019, published 2023)
